From patent publication US20160296499A1, “Spiroindoline Antiparasitic Derivatives” (ZOETIS SERVICES LLC, priority 2013, published 2016)
Where two headings read alike, the source gives them in different places.

Columns and labels:
[1] = tested on: Dirofilaria immitis microfilariae; test: Dirofilaria immitis, Microfilariae (DiMF) In Vitro Assay; details: Dirofilaria immitis
[2] = tested on: Haemonchus contortus L3; test: Haemonchus contortus, Larvae Stage 3 (HcL3) In Vitro Assay; details: Haemonchus contortus
[3] = biological target: T1, bovine vesicular acetylcholine transporter (VAChT) (Bos taurus, UniProt E1BK36); test: Radioligand Binding Assay; details: for Ki: Bovine binding Ki, CHO-K1 membranes with recombinant bovine VAChT, [3H]Compound X6 0.3 nM
T1 sequence (E1BK36 1-524): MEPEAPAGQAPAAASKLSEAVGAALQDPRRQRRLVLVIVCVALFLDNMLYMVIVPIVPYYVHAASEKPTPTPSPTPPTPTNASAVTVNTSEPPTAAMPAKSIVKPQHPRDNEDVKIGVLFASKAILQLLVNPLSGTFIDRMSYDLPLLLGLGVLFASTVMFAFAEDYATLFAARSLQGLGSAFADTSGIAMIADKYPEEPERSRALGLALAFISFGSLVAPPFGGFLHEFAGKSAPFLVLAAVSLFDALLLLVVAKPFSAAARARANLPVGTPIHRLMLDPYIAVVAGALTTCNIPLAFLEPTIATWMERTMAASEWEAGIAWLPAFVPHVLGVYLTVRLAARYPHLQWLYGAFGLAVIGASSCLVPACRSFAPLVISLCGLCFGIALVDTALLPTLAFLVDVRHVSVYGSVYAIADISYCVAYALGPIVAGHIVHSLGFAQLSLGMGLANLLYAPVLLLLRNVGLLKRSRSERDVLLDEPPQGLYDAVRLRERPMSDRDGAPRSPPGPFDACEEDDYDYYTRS
Procedure: To measure binding affinity, CHO-K1 cells recombinantly expressing the bovine VAChT was generated as a stable cell line and subsequently used to produce membrane preparations.
Radioligand binding assays were conducted in disposable polypropylene 96-well plates. VAChT competition assays were initiated by the addition of bovine recombinant membrane homogenate (50 μg/well) in assay buffer (50 mM Tris-HCl, 120 mM NaCl, 5 mM KCl, 1 mM MgCl, and 2 mM CaCl, pH 7.4) containing [^3H]Compound X6 (0.3 nM) with or without competing ligand. The assay was allowed to equilibrate for 120 minutes at room temperature, before being filtered onto GF/C unifilter plates pre-coated in 0.3% polyethylenimine (Perkin Elmer Life and Analytical Sciences, Boston, Mass.) with a Filtermate 96 harvester (PerkinElmer Life and Analytical Sciences). Filters were washed in ice-cold 50 mM Tris-HCl, pH 7.4 buffer and then counted for radioactivity in a TopCount microplate scintillation counter after addition of 50 μL Microscint 20 (PerkinElmer). Non-specific binding was measured in the presence of 10 μM Compound X6. Apparent dissociation constants (Ki values) from the competition experiments were calculated using an iterative nonlinear regression curve-fitting program (GraphPAD Prism 6.0 Software, San Diego, Calif.) and are reported in Table 2.

[4] = 72 h, read-out: Di MF, MEC, decrease in microfilariae motility by visual assessment, curve starting at 100 μM
[5] = 96 h, read-out: HcL3 MEC, Minimal Effective Concentration whereby worm motility is inhibited by approximately 70%, 37° C., tested 0.001-100 μM
[6] = 96 hours, 37° C., read-out: HcL3 MEC

Structure (SMILES): O=C(NCC1CCCO1)N1CC2(CCN(C/C=C/c3ccc(Cl)c(Cl)c3)CC2)c2c1ccc1scnc21 (racemic) [Example 34, (+/−)(E)-1-(3-(3,4-dichlorophenyl)allyl)-N-((tetrahydrofuran-2-yl)methyl)spiro[piperidine-4,8′-thiazolo[4,5-e]indole]-6′(7′H)-carboxamide]
- minimal effective concentration [1, 4]: 3.3 µM
- minimal effective concentration [2, 5]: 100 µM
- Ki [3]: 467 nM

Structure (SMILES): O=C(NCC1CCOC1)N1CC2(CCN(C/C=C/c3ccc(Cl)c(Cl)c3)CC2)c2c1ccc1scnc21 (racemic) [Example 35, (+/−)(E)-1-(3-(3,4-dichlorophenyl)allyl)-N-((tetrahydrofuran-3-yl)methyl)spiro[piperidine-4,8′-thiazolo[4,5-e]indole]-6′(7′H)-carboxamide]
- minimal effective concentration [1, 4]: 3.3 µM
- minimal effective concentration [2, 5]: 100 µM
- Ki [3]: 731 nM

Structure (SMILES): COc1ccc(/C=C/CN2CCC3(CC2)CN(C(=O)NCc2ccnc(Cl)c2)c2ccc(F)cc23)cc1 [Compound X6, reference compound]
- Kd [3]: 0.6 nM

Structure (SMILES): O=C(NCc1ccnc(Cl)c1)N1CC2(CCN(C/C=C/c3ccc(Cl)c(Cl)c3)CC2)c2cc3c(cc21)COC3 [Example 1, (E)-N-((2-chloropyridin-4-yl)methyl)-1′-(3-(3,4-dichlorophenyl)allyl)-5,7-dihydrospiro[furo[3,4-f]indole-3,4′-piperidine]-1(2H)-carboxamide]
- minimal effective concentration [2, 5]: 1 µM
- Ki [3]: 70 nM

Structure (SMILES): O=C(NCc1ccnc(F)c1)N1CC2(CCN(C/C=C/c3ccc(Cl)cc3)CC2)c2cc3c(cc21)COC3 [Example 2, (E)-1′-(3-(4-chlorophenyl)allyl)-N-((2-fluoropyridin-4-yl)methyl)-5,7-dihydrospiro[furo[3,4-f]indole-3,4′-piperidine]-1(2H)-carboxamide]
- minimal effective concentration [1, 4]: 10 µM
- minimal effective concentration [2, 5]: 18.2 µM
- Ki [3]: 321 nM

Structure (SMILES): O=C(NCc1cnc(Cl)s1)N1CC2(CCN(C/C=C/c3ccc(Cl)cc3)CC2)c2cc3c(cc21)COC3 [Example 3, (E)-1′-(3-(4-chlorophenyl)allyl)-N-((2-chlorothiazol-5-yl)methyl)-5,7-dihydrospiro[furo[3,4-f]indole-3,4′-piperidine]-1(2H)-carboxamide]
- minimal effective concentration ([1]; 72 hours, read-out: Di MF): 5.7 µM
- minimal effective concentration [2, 6]: 3.3 µM
- Ki [3]: 31.2 nM

Structure (SMILES): O=C(NCc1ccnc(Cl)c1)N1CC2(CCN(C/C=C/c3ccc(F)cc3)CC2)c2cc3c(cc21)COC3 [Example 4, (E)-N-((2-chloropyridin-4-yl)methyl)-1′-(3-(4-fluorophenyl)allyl)-5,7-dihydrospiro[furo[3,4-f]indole-3,4′-piperidine]-1(2H)-carboxamide]
- minimal effective concentration ([1]; 72 hours, read-out: Di MF): 10 µM
- minimal effective concentration [2, 6]: 10 µM
- Ki [3]: 78.7 nM

Structure (SMILES): N#Cc1ccc(/C=C/CN2CCC3(CC2)CN(C(=O)NCc2ccnc(Cl)c2)c2cc4c(cc23)COC4)cc1 [Example 5, (E)-N-((2-chloropyridin-4-yl)methyl)-1′-(3-(4-cyanophenyl)allyl)-5,7-dihydrospiro[furo[3,4-f]indole-3,4′-piperidine]-1(2H)-carboxamide]
- minimal effective concentration [1, 4]: 10 µM
- minimal effective concentration [2, 5]: 33 µM
- Ki [3]: 70.1 nM

Structure (SMILES): O=C(NCc1ccnc(Cl)c1)N1CC2(CCN(C/C=C/c3ccc(Cl)cc3)CC2)c2cc3c(cc21)OCO3 [Example 6, (E)-1-(3-(4-chlorophenyl)allyl)-N-((2-chloropyridin-4-yl)methyl)spiro[piperidine-4,7′-[1,3]dioxolo[4,5-f]indole]-5′(6′H)-carboxamide]
- minimal effective concentration ([1]; 72 hours, read-out: Di MF): 10 µM
- minimal effective concentration [2, 6]: 3.3 µM
- Ki [3]: 35.4 nM

Structure (SMILES): CC1(C)Oc2cc3c(cc2O1)C1(CCN(C/C=C/c2ccc(Cl)c(Cl)c2)CC1)CN3C(=O)NCc1ccnc(Cl)c1 [Example 7, (E)-N-((2-chloropyridin-4-yl)methyl)-1-(3-(3,4-dichlorophenyl)allyl)-2′,2′-dimethylspiro[piperidine-4,7′-[1,3]dioxolo[4,5-f]indole]-5′(6′H)-carboxamide]
- minimal effective concentration ([1]; 72 hours, read-out: Di MF): 10 µM
- minimal effective concentration [2, 6]: 100 µM
- Ki [3]: 516 nM

Structure (SMILES): CC1(C)Oc2cc3c(cc2O1)C1(CCN(C/C=C/c2ccc(Cl)cc2)CC1)CN3C(=O)NCc1ccnc(Cl)c1 [Example 8, (E)-1-(3-(4-chlorophenyl)allyl)-N-((2-chloropyridin-4-yl)methyl)-2′,2′-dimethylspiro[piperidine-4,7′-[1,3]dioxolo[4,5-f]indole]-5′(6′H)-carboxamide]
- minimal effective concentration ([1]; 72 hours, read-out: Di MF): 10 µM
- minimal effective concentration [2, 6]: 100 µM
- Ki [3]: 1520 nM

Structure (SMILES): O=C(NCc1ccnc(Cl)c1)N1CC2(CCN(C/C=C/c3ccc(Cl)c(Cl)c3)CC2)c2cc3c(cc21)OCCO3 [Example 9, (E)-N-((2-chloropyridin-4-yl)methyl)-1-(3-(3,4-dichlorophenyl)allyl)-2′,3′-dihydrospiro[piperidine-4,8′-[1,4]dioxino[2,3-f]indole]-6′(7′H)-carboxamide]
- minimal effective concentration [1, 4]: 10 µM
- minimal effective concentration [2, 5]: 33 µM
- Ki [3]: 62.8 nM

Structure (SMILES): O=C(NCc1ccnc(Cl)c1)N1CC2(CCN(C/C=C/c3ccc(Cl)c(Cl)c3)CC2)c2c1ccc1c2OCCO1 [Example 11, (E)-N-((2-chloropyridin-4-yl)methyl)-1-(3-(3,4-dichlorophenyl)allyl)-2′,3′-dihydrospiro[piperidine-4,9′-[1,4]dioxino[2,3-e]indole]-7′(8′H)-carboxamide]
- minimal effective concentration [1, 4]: 10 µM
- minimal effective concentration [2, 5]: 100 µM
- Ki [3]: 178 nM

Structure (SMILES): O=C(NCc1ccnc(Cl)c1)N1CC2(CCN(C/C=C/c3ccc(Cl)c(Cl)c3)CC2)c2cc3c(cc21)CCC3 [Example 12, (E)-N-((2-chloropyridin-4-yl)methyl)-1′-(3-(3,4-dichlorophenyl)allyl)-2,5,6,7-tetrahydro-1H-spiro[cyclopenta[f]indole-3,4′-piperidine]-1-carboxamide]
- minimal effective concentration ([1]; 72 hours, read-out: Di MF): 10 µM
- minimal effective concentration [2, 6]: 2.2 µM
- Ki [3]: 56.3 nM

Structure (SMILES): O=C(NCc1ccncc1)N1CC2(CCN(C/C=C/c3ccc(Cl)c(Cl)c3)CC2)c2c1ccc1scnc21 [Example 13, (E)-1-(3-(3,4-dichlorophenyl)allyl)-N-(pyridin-4-ylmethyl)spiro[piperidine-4,8′-thiazolo[4,5-e]indole]-6′(7′H)-carboxamide]
- minimal effective concentration [1, 4]: 10 µM
- minimal effective concentration [2, 5]: 100 µM
- Ki [3]: 379 nM

Structure (SMILES): O=C(NCc1ncccn1)N1CC2(CCN(C/C=C/c3ccc(Cl)c(Cl)c3)CC2)c2c1ccc1scnc21 [Example 14, (E)-1-(3-(3,4-dichlorophenyl)allyl)-N-(pyrimidin-2-ylmethyl)spiro[piperidine-4,8′-thiazolo[4,5-e]indole]-6′(7′H)-carboxamide]
- minimal effective concentration [1, 4]: 10 µM
- minimal effective concentration [2, 5]: 100 µM
- Ki [3]: 721 nM

Structure (SMILES): COc1nc2ccccc2cc1CN1CCC2(CC1)CN(C(=O)NCc1ccnc(Cl)c1)c1ccc(Cl)cc12 [Example 134, 5-chloro-N-((2-chloropyridin-4-yl)methyl)-1′-((2-methoxyquinolin-3-yl)methyl)spiro[indoline-3,4′-piperidine]-1-carboxamide]
- minimal effective concentration [2, 6]: 2 µM
- Ki [3]: 34.9 nM

Structure (SMILES): CN(Cc1ccnc(Cl)c1)C(=O)N1CC2(CCN(C/C=C/c3ccc(Cl)cc3)CC2)c2cc(Cl)ccc21 [Example 188, (E)-5-chloro-1′-(3-(4-chlorophenyl)allyl)-N-((2-chloropyridin-4-yl)methyl)-N-methylspiro[indoline-3,4′-piperidine]-1-carboxamide]
- minimal effective concentration [2, 5]: 2 µM
- Ki [3]: 172 nM
